Experiments:
Test in all cases: biochemical
Type in all cases: binding
[1] = target: HLA DRB1*11:01 (Homo sapiens, UniProt P01903+P01911, A100R/A169T/A87E/I96F/K41T/L162R/M171V/P40S/Q125H/Q178H/Q39Y/Q99D/R42S/S66Y/T262R/V115G/W38E); settings: binder threshold 1,000 nM, read-out: In vitro (IC50 nM) DRB1*11:01
[2] = target: HLA DRB1*01:01 (Homo sapiens, UniProt P01903+P01911, A100R/D57E/F55L/F60I/F76Y/I96L/L162R/M171V/P40L/Q125E/R42F/V115G/Y59C); settings: binder threshold 1,000 nM, read-out: In vitro (IC50 nM) DRB1*01:01
[3] = target: HLA DRB1*08:02 (Homo sapiens, UniProt P01903+P01911, A100R/A103L/A169T/F76Y/H45Y/I96F/K41T/L162R/M171V/P40S/Q125H/Q178H/Q39Y/Q99D/R218S/R42G/S66Y/V115G/W38E); settings: binder threshold 1,000 nM, read-out: In vitro (IC50 nM) DRB1*08:02
[4] = target: HLA DRB1*07:01 (Homo sapiens, UniProt P01903+P01911, A100R/A102G/A103Q/D57E/D86V/E43K/F76Y/K127E/L162R/M171V/P40G/Q125H/Q99D/R33Q/R42Y/R54Q/S133A/S66F/T210M/V115G/Y107V/Y59L/Y89S); settings: binder threshold 1,000 nM, read-out: In vitro (IC50 nM) DRB1*07:01
[5] = target: HLA DRB1*04:01 (Homo sapiens, UniProt P01903+P01911, A100K/A169T/F76Y/I96L/K127E/L162R/M171V/N62H/P40V/Q125Y/R42H/S133A/S149N/S66Y/V115G/V209L/W38E); settings: binder threshold 1,000 nM, read-out: In vitro (IC50 nM) DRB1*04:01
[6] = target: HLA DRB1*12:01 (Homo sapiens, UniProt P01903+P01911, A100R/A169T/D57E/D86V/F55L/H45Y/K41T/L162R/M171V/P40S/Q125H/Q178H/Q39Y/Q99D/R42G/S66L/T262R/V114A/V67L/W38E/Y59H/Y61H/Y89S); settings: binder threshold 1,000 nM, read-out: In vitro (IC50 nM) DRB1*12:01
[7] = target: HLA DRB1*15:01 (Homo sapiens, UniProt P01903+P01911); settings: binder threshold 1,000 nM, read-out: In vitro (IC50 nM) DRB1*15:01
[8] = target: HLA DRB1*04:05 (Homo sapiens, UniProt P01903+P01911, A100R/A169T/D86S/F76Y/I96L/K127E/L162R/M171V/N62H/P40V/Q125Y/R42H/S133A/S149N/S66Y/V115G/V209L/W38E); settings: binder threshold 1,000 nM, read-out: In vitro (IC50 nM) DRB1*04:05
[9] = target: HLA DRB1*09:01 (Homo sapiens, UniProt P01903+P01911, A100R/A103E/D57H/D86V/F55Y/F60I/F76Y/I96F/K127E/L162R/M171V/P40D/Q125H/Q99R/R33Q/R42F/S133A/S66N/T210M/V115G/W38K/Y107V/Y59G/Y89S); settings: binder threshold 1,000 nM, read-out: In vitro (IC50 nM) DRB1*09:01
[10] = target: HLA DRB1*03:01 (Homo sapiens, UniProt P01903+P01911, A100K/A102G/A103R/A169T/F55Y/I96L/K41T/L162R/M171V/P40S/Q125H/Q178H/Q39Y/R42S/S66N/T106N/T262R/W38E/Y61H); settings: binder threshold 1,000 nM, read-out: In vitro (IC50 nM) DRB1*03:01
Chain of HLA DRB1*03:01 (P01903 26-254, other chains not shown): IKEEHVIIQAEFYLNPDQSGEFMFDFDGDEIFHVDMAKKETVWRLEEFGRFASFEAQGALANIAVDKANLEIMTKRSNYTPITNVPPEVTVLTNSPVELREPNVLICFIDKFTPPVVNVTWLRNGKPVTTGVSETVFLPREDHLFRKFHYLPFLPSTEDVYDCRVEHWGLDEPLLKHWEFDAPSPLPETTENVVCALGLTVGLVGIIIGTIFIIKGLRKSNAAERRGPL

Chain of HLA DRB1*11:01 (P01903 26-254, other chains not shown): as above

Structure (SMILES): CC[C@H](C)[C@H](NC(=O)[C@@H]1CCCN1C(=O)[C@H](CCSC)NC(=O)[C@H](CC(C)C)NC(=O)[C@H](CC(C)C)NC(=O)[C@H](CO)NC(=O)[C@H](Cc1ccc(O)cc1)NC(=O)[C@H](Cc1ccc(O)cc1)NC(=O)[C@@H](N)CO)C(=O)N[C@@H](CC(C)C)C(=O)N[C@H](C(=O)N[C@@H](CC(C)C)C(=O)N[C@H](C(=O)N[C@@H](CCCNC(=N)N)C(=O)N[C@@H](C)C(=O)O)[C@@H](C)O)[C@@H](C)O [NSP12_48]
- IC50 [1]: 73 nM
- IC50 [2]: 7.7 nM
- IC50 [3]: 498 nM
- IC50 [4]: 115 nM
- IC50 [5]: 224 nM
- IC50 [6]: 1350 nM
- IC50 [7]: 23 nM
- IC50 [8]: 147 nM
- IC50 [9]: 1550 nM
- IC50 [10]: 9120 nM

Structure (SMILES): CC(C)C[C@H](NC(=O)[C@H](C)NC(=O)[C@H](CCCNC(=N)N)NC(=O)[C@@H](NC(=O)[C@H](CC(C)C)NC(=O)[C@@H](N)[C@@H](C)O)[C@@H](C)O)C(=O)N[C@H](C(=O)N[C@@H](C)C(=O)N[C@@H](CCC(=O)O)C(=O)N[C@@H](CO)C(=O)N[C@@H](Cc1c[nH]cn1)C(=O)N[C@H](C(=O)N[C@@H](CC(=O)O)C(=O)N[C@H](C(=O)N[C@@H](CC(=O)O)C(=O)O)[C@@H](C)O)C(C)C)[C@@H](C)O [NSP12_50]
- IC50 [1]: 301 nM
- IC50 [2]: 2100 nM
- IC50 [3]: 501 nM
- IC50 [4]: 14 nM
- IC50 [5]: 4.1 nM
- IC50 [6]: 4490 nM
- IC50 [7]: 1290 nM
- IC50 [8]: 99 nM
- IC50 [9]: 59 nM
- IC50 [10]: 1640 nM

Structure (SMILES): CC(C)C[C@H](NC(=O)[C@H](C)NC(=O)[C@H](CC(=O)O)NC(=O)[C@H](CCC(N)=O)NC(=O)[C@H](CC(=O)O)NC(=O)[C@H](CCC(=O)O)NC(=O)[C@@H](N)Cc1ccc(O)cc1)C(=O)N[C@@H](Cc1ccccc1)C(=O)N[C@@H](C)C(=O)N[C@@H](Cc1ccc(O)cc1)C(=O)N[C@H](C(=O)N[C@@H](CCCCN)C(=O)N[C@@H](CCCNC(=N)N)C(=O)N[C@@H](CC(N)=O)C(=O)N[C@H](C(=O)O)C(C)C)[C@@H](C)O [Peptide 105]
- IC50 [1]: 21 nM
- IC50 [2]: 16000 nM
- IC50 [3]: 495 nM
- IC50 [4]: 35 nM
- IC50 [5]: 3090 nM
- IC50 [7]: 480 nM
- IC50 [9]: 8570 nM
- IC50 [10]: 39400 nM

Structure (SMILES): CC(C)[C@H](NC(=O)[C@H](CO)NC(=O)[C@H](CC(N)=O)NC(=O)[C@H](C)NC(=O)[C@H](Cc1ccc(O)cc1)NC(=O)[C@H](C)NC(=O)[C@@H](NC(=O)[C@@H](NC(=O)[C@H](C)NC(=O)[C@H](CC(=O)O)NC(=O)CNC(=O)[C@H](CO)NC(=O)[C@@H](N)CO)[C@@H](C)O)[C@@H](C)O)C(=O)N[C@@H](Cc1ccccc1)C(=O)N[C@@H](CC(N)=O)C(=O)O [Peptide 137]
- IC50 [1]: 15900 nM
- IC50 [2]: 1800 nM
- IC50 [4]: 3970 nM
- IC50 [5]: 5180 nM
- IC50 [6]: 22700 nM
- IC50 [7]: 567 nM
- IC50 [8]: 27200 nM
- IC50 [9]: 197 nM

Structure (SMILES): CC(C)C[C@H](NC(=O)[C@H](Cc1ccc(O)cc1)NC(=O)[C@H](C)NC(=O)[C@H](Cc1ccc(O)cc1)NC(=O)[C@H](Cc1ccccc1)NC(=O)[C@H](CCC(=O)O)NC(=O)[C@H](CC(N)=O)NC(=O)[C@@H](NC(=O)[C@H](Cc1ccccc1)NC(=O)[C@H](CC(=O)O)NC(=O)[C@@H](NC(=O)[C@H](CC(=O)O)NC(=O)[C@@H](NC(=O)[C@@H](N)CC(=O)O)C(C)C)[C@@H](C)O)C(C)C)C(=O)N[C@@H](CCCNC(=N)N)C(=O)O [Peptide 148]
- IC50 [1]: 949 nM
- IC50 [2]: 856 nM
- IC50 [3]: 2200 nM
- IC50 [5]: 16900 nM
- IC50 [7]: 1180 nM
- IC50 [9]: 6950 nM
- IC50 [10]: 28500 nM
